Reference: patent US8883841B2, “Oncogenic ras-specific cytotoxic compound and methods of use thereof” (The Board of Regents of the University of Texas System, priority 2005, dated 2014)
Like-named read-outs stand apart in the source and are kept apart here.

Columns and labels:
[1] = system: T-47D; assay: NCI in-vitro testing, T-47D (Breast Cancer); details: for GI50 / CC50: Homo sapiens, T47D; for CC50: read-out: LC50; for TGI / Percent Growth: T-47D
[2] = system: EKVX; assay: NCI in-vitro testing, EKVX (Non-Small Cell Lung Cancer); details: for GI50 / CC50: Homo sapiens; for CC50: read-out: LC50
[3] = system: SNB-75; assay: NCI in-vitro testing, SNB-75 (CNS Cancer); details: for GI50 / CC50: Homo sapiens; for CC50: SNB-75, read-out: LC50
[4] = system: K-562; assay: NCI in-vitro testing, K-562 (Leukemia); details: for GI50 / CC50: Homo sapiens; for CC50: K562, read-out: LC50; for TGI / Percent Growth: K-562
[5] = system: HOP-62; assay: NCI in-vitro testing, HOP-62 (Non-Small Cell Lung Cancer); details: for GI50 / CC50: Homo sapiens; for CC50: HOP-62, read-out: LC50
[6] = system: T29Kt1 cells; details: Table 1; value is the negative log10 of mol/L
[7] = system: CCRF-CEM; assay: NCI in-vitro testing, CCRF-CEM (Leukemia); details: for GI50 / CC50: Homo sapiens; for CC50: read-out: LC50
[8] = system: H460 cells; assay: cells; details: Homo sapiens
[9] = system: HL-60(TB); assay: NCI in-vitro testing, HL-60(TB) (Leukemia); details: for TGI / Percent Growth: HL-60(TB); for GI50 / CC50: Homo sapiens; for CC50: HL-60, read-out: LC50
[10] = system: HCT-15; assay: NCI in-vitro testing, HCT-15 (Colon Cancer); details: for GI50 / CC50: Homo sapiens; for CC50: HCT-15, read-out: LC50
[11] = system: Ovca429; assay: Cell viability, Ovca429 ovary cancer cells; assay type: cell-based
[12] = system: H2087; assay: Cell viability, H2087 lung cancer cells; assay type: cell-based, human; details: Homo sapiens, NCI-H2087; H2087, Lung; read-out: IC50 (−LogM) (converted)
[13] = system: H23; assay: Cell viability, H23 lung cancer cells; assay type: cell-based, human; details: Homo sapiens, NCI-H23; H23, Lung; read-out: IC50 (−LogM) (converted)
[14] = SNB-75, Log10 Concentration −4.0 Molar
[15] = SNB-75, Log10 Concentration −5.0 Molar
[16] = SNB-75, Log10 Concentration −6.0 Molar
[17] = SNB-75, Log10 Concentration −7.0 Molar
[18] = SNB-75, Log10 Concentration −8.0 Molar
[19] = HOP-62, Log10 Concentration −4.0 Molar
[20] = HOP-62, Log10 Concentration −5.0 Molar
[21] = HOP-62, Log10 Concentration −6.0 Molar
[22] = HOP-62, Log10 Concentration −7.0 Molar
[23] = HOP-62, Log10 Concentration −8.0 Molar
[24] = NCI-H460, read-out: IC50 (−LogM), H460, Lung (converted)
[25] = HCT-15, Log10 Concentration −4.0 Molar
[26] = HCT-15, Log10 Concentration −5.0 Molar
[27] = HCT-15, Log10 Concentration −6.0 Molar
[28] = HCT-15, Log10 Concentration −7.0 Molar
[29] = HCT-15, Log10 Concentration −8.0 Molar
[30] = read-out: Log10 GI50 (converted)

O=Cc1cn(Cc2cccc(Cl)c2)c2ccccc12 [Oncrasin K027, 1-(3-chlorobenzyl)-1H-indole-3-carbaldehyde]
GI50 [1]: 0.0267 µM | CC50 [1]: > 100 µM | TGI [1]: 4.23E−7 Molar | Percent Growth ([1]; Log10 Concentration −4.0 Molar): −14% | Percent Growth ([1]; Log10 Concentration −5.0 Molar): −16% | Percent Growth ([1]; Log10 Concentration −6.0 Molar): −12% | Percent Growth ([1]; Log10 Concentration −7.0 Molar): 20% | Percent Growth ([1]; Log10 Concentration −8.0 Molar): 73% | TGI [2]: 6.47E−5 Molar | GI50 [2]: 21 µM | CC50 [2]: > 100 µM | Percent Growth ([2]; Log10 Concentration −4.0 Molar): −22% | Percent Growth ([2]; Log10 Concentration −5.0 Molar): 94% | Percent Growth ([2]; Log10 Concentration −6.0 Molar): 107% | Percent Growth ([2]; Log10 Concentration −7.0 Molar): 105% | Percent Growth ([2]; Log10 Concentration −8.0 Molar): 103% | GI50 ([3]; SNB-75): 7.64 µM | CC50 [3]: 62.8 µM | TGI ([3]; SNB-75): 2.31E−5 Molar | Percent Growth [3, 14]: −73% | Percent Growth [3, 15]: 42% | Percent Growth [3, 16]: 112% | Percent Growth [3, 17]: 119% | Percent Growth [3, 18]: 118% | GI50 ([4]; K562): 0.0192 µM | CC50 [4]: 54.5 µM | TGI [4]: 1.26E−5 Molar | Percent Growth ([4]; Log10 Concentration −4.0 Molar): −71% | Percent Growth ([4]; Log10 Concentration −5.0 Molar): 8% | Percent Growth ([4]; Log10 Concentration −6.0 Molar): 87% | Percent Growth ([4]; Log10 Concentration −7.0 Molar): 100% | Percent Growth ([4]; Log10 Concentration −8.0 Molar): 114% | TGI ([5]; HOP-62): 1.93E−5 Molar | Percent Growth [5, 19]: −37% | Percent Growth [5, 20]: 15% | Percent Growth [5, 21]: 35% | Percent Growth [5, 22]: 87% | Percent Growth [5, 23]: 91% | GI50 ([5]; HOP-62): 0.35 µM | CC50 [5]: > 100 µM | IC50 in T29k cells [6]: 6.43 | GI50 [7]: 1.74 µM | CC50 [7]: 14.8 µM | Percent Growth ([7]; Log10 Concentration −4.0 Molar): −67% | Percent Growth ([7]; Log10 Concentration −5.0 Molar): −47% | Percent Growth ([7]; Log10 Concentration −6.0 Molar): 87% | Percent Growth ([7]; Log10 Concentration −7.0 Molar): 97% | Percent Growth ([7]; Log10 Concentration −8.0 Molar): 100% | IC50 [8, 24]: 0.00398 µM | TGI [9]: 1.28E−5 Molar | Percent Growth ([9]; Log10 Concentration −4.0 Molar): −78% | Percent Growth ([9]; Log10 Concentration −5.0 Molar): 9% | Percent Growth ([9]; Log10 Concentration −6.0 Molar): 89% | Percent Growth ([9]; Log10 Concentration −7.0 Molar): 85% | Percent Growth ([9]; Log10 Concentration −8.0 Molar): 95% | GI50 ([9]; HL-60): 2.1 µM | CC50 [9]: 48.1 µM | TGI ([10]; HCT-15): 2.58E−6 Molar | Percent Growth [10, 25]: −31% | Percent Growth [10, 26]: 21% | Percent Growth [10, 27]: 69% | Percent Growth [10, 28]: 90% | Percent Growth [10, 29]: 99% | GI50 ([10]; HCT-15): 0.0252 µM | CC50 [10]: > 100 µM

OCc1cn(Cc2ccc(Cl)cc2)c2ccccc12 [Oncrasin K060, 1H-Indole-3-methanol, 1-[(4-chlorophenyl)methyl]-]
GI50 [1]: 0.0267 µM | CC50 [1]: > 100 µM | GI50 [1, 30]: 0.0269 µM | TGI [1]: 4.23E−7 Molar | Percent Growth ([1]; Log10 Concentration −4.0 Molar): −14% | Percent Growth ([1]; Log10 Concentration −5.0 Molar): −16% | Percent Growth ([1]; Log10 Concentration −6.0 Molar): −12% | Percent Growth ([1]; Log10 Concentration −7.0 Molar): 20% | Percent Growth ([1]; Log10 Concentration −8.0 Molar): 73% | TGI [2]: 6.47E−5 Molar | GI50 [2]: 24 µM | CC50 [2]: > 100 µM | GI50 [2, 30]: 24 µM | Percent Growth ([2]; Log10 Concentration −4.0 Molar): −22% | Percent Growth ([2]; Log10 Concentration −5.0 Molar): 94% | Percent Growth ([2]; Log10 Concentration −6.0 Molar): 107% | Percent Growth ([2]; Log10 Concentration −7.0 Molar): 105% | Percent Growth ([2]; Log10 Concentration −8.0 Molar): 103% | GI50 ([3]; SNB-75): 76.4 µM | CC50 [3]: 62.8 µM | GI50 ([3]; SNB-75, read-out: Log10 GI50 (converted)): 7.59 µM | TGI ([3]; SNB-75): 2.31E−5 Molar | Percent Growth [3, 14]: −73% | Percent Growth [3, 15]: 42% | Percent Growth [3, 16]: 112% | Percent Growth [3, 17]: 119% | Percent Growth [3, 18]: 118% | GI50 ([4]; K562): 19.2 µM | CC50 [4]: 6.46 µM | GI50 ([4]; K562, read-out: Log10 GI50 (converted)): 1.91 µM | TGI [4]: 1.26E−6 Molar | Percent Growth ([4]; Log10 Concentration −4.0 Molar): −71% | Percent Growth ([4]; Log10 Concentration −5.0 Molar): 8% | Percent Growth ([4]; Log10 Concentration −6.0 Molar): 67% | Percent Growth ([4]; Log10 Concentration −7.0 Molar): 100% | Percent Growth ([4]; Log10 Concentration −8.0 Molar): 114% | TGI ([5]; HOP-62): 1.93E−5 Molar | Percent Growth [5, 19]: −37% | Percent Growth [5, 20]: 15% | Percent Growth [5, 21]: 36% | Percent Growth [5, 22]: 07% | Percent Growth [5, 23]: 91% | GI50 ([5]; HOP-62): 0.3 µM | CC50 [5]: > 100 µM | GI50 ([5]; HOP-62, read-out: Log10 GI50 (converted)): 0.363 µM | IC50 [11]: 31.6 µM | IC50 [12]: 25.1 µM | TGI [7]: 4.31E−6 Molar | GI50 [7]: 1.74 µM | CC50 [7]: 14.8 µM | GI50 [7, 30]: 1.74 µM | Percent Growth ([7]; Log10 Concentration −4.0 Molar): −67% | Percent Growth ([7]; Log10 Concentration −5.0 Molar): −47% | Percent Growth ([7]; Log10 Concentration −6.0 Molar): 81% | Percent Growth ([7]; Log10 Concentration −7.0 Molar): 97% | Percent Growth ([7]; Log10 Concentration −8.0 Molar): 100% | IC50 [8, 24]: 0.0158 µM | IC50 ([8]; NCI-H460, read-out: IC50 in H460 cells, Table 1): 0.0158 µM | TGI [9]: 1.28E−5 Molar | Percent Growth ([9]; Log10 Concentration −4.0 Molar): −78% | Percent Growth ([9]; Log10 Concentration −5.0 Molar): 9% | Percent Growth ([9]; Log10 Concentration −6.0 Molar): 89% | Percent Growth ([9]; Log10 Concentration −7.0 Molar): 85% | Percent Growth ([9]; Log10 Concentration −8.0 Molar): 95% | GI50 ([9]; HL-60): 2.1 µM | CC50 [9]: 4.31 µM | GI50 ([9]; HL-60, read-out: Log10 GI50 (converted)): 2.09 µM | IC50 [13]: 15.8 µM | TGI ([10]; HCT-15): 2.58E−5 Molar | Percent Growth [10, 25]: −31% | Percent Growth [10, 26]: 21% | Percent Growth [10, 27]: 69% | Percent Growth [10, 28]: 90% | Percent Growth [10, 29]: 99% | GI50 ([10]; HCT-15): 2.52 µM | CC50 [10]: > 100 µM | GI50 ([10]; HCT-15, read-out: Log10 GI50 (converted)): 2.51 µM
